Measured values reported in patent US20170049843A1, “Hepatocyte Growth Factor Mimics as Therapeutic Agents” (WASHINGTON STATE UNIVERSITY, priority 2011, published 2017).
Values joined by “and” are separate entries in the source; they are usually repeats but may differ in a detail not shown here. Equal entries are not always repeated. Where a SMILES comes first, the peptide text is derived from it. [ ]: non-standard residue; d: D form. The star is where a group is joined. Nle = CCCC[C@H](N)C(=O)O; Hexanoyl = CCCCCC(=O)*; Ahx = NCCCCCC(=O)O

How the values were obtained:
Format in all cases: cell-based, rat
hippocampal neurons [1] = assay: Spinogenesis in mRFP-β-actin transfected dissociated hippocampal neurons; conditions: 5 days; for spine numbers per 50 μm dendrite length: biologically active doses, printed as 10^−13 M, control 17.4
Procedure: Hippocampal neurons ([…] cells per square cm) were cultured from P1 Sprague Dawley rats on plates coated with poly-L-lysine from Sigma (St. Louis, Mo.; molecular weight 300,000). Hippocampal neurons were maintained in Neurobasal A media from Invitrogen (Carlsbad, Calif.) supplemented with B27 from Invitrogen, 0.5 mM L-glutamine, and […] cytosine-D-arabinofuranoside from Sigma added at 2 days in vitro. Hippocampal neurons were then cultured a further 3-7 days, at which time they were either transfected or treated with various pharmacological reagents as described in (Wayman, Davare et al. 2008).
(§1) Neurons were transfected with mRFP-β-actin on day in vitro 6 (DIV6) using LipofectAMINE™ 2000 (Invitrogen) according to the manufacturer's protocol. This protocol yielded the desired 3-5% transfection efficiency thus enabling the visualization of individual neurons. Higher efficiencies obscured the dendritic arbor of individual neurons. Expression of fluorescently tagged actin allowed clear visualization of dendritic spines, as dendritic spines are enriched in actin. On DIV7 the cells were treated with vehicle (H20) or peptides (as described in the text) added to media. On DIV12 the neurons were fixed (4% paraformaldehyde, 3% sucrose, 60 mM PIPES, 25 mM HEPES, 5 mM EGTA, 1 mM MgCl2, pH 7.4) for 20 min at room temperature and mounted. Slides were dried for at least 20 hours at 4° C. and fluorescent images were obtained with Slidebook 4.2 Digital Microscopy Software driving an Olympus IX81 inverted confocal microscope with a 60× oil immersion lens, NA 1.4 and resolution 0.280 μm Dendritic spine density was measured on primary and secondary dendrites at a distance of at least 150 μm from the soma. Five 50 μm long segments of dendrite from at least 10 neurons per data point were analyzed for each data point reported. Each experiment was repeated at least three times using independent culture preparations. Dendrite length was determined using the National Institutes of Health's Image J 1.41o program (NIH, Bethesda, Md.) and the neurite tracing program Neuron J (Meijering, Jacob et al. 2004) Spines were manually counted.
Hippocampal neurons (2×10^5 cells per square centimeter) were cultured from P1-2 Sprague Dawley rats on plates coated with poly-L-lysine from Sigma (St. Louis, Mo.; molecular weight 300,000). Hippocampal neurons were maintained in Neurobasal A media from Invitrogen (Carlsbad, Calif.) supplemented with B27 from Invitrogen, 0.5 mM L-glutamine, and […] cytosine-D-arabinofuranoside from Sigma added at 2 days in vitro. Hippocampal neurons were then cultured a further 3-7 days, at which time they were either transfected or treated with various pharmacological reagents as described in the text or figure legends.

c-Met receptor = assay: Spinogenesis after c-Met knock-down with shRNA; conditions: 10 ng/ml HGF or 10^−12 M analog
Excerpt: as §1
A target sequence for c-Met was designed using RNAi central design program (see the website located at cancan.cshl.edu/). […]. The shRNA was transfected into cells using the lipofectamine method described above. Verification of receptor knockdown was done by creating a c-Met-6-Myc tagged gene product using the Gateway cloning system (Invitrogen). The Met protein coding sequence was cloned from rat whole brain cDNA using primers obtained from Integrated DNA Technologies, Inc. The amplified product was gel purified and a band corresponding to […] band excised and cloned into a PCAGGS-6-Myc destination vector (Gateway).
To irrefutably confirm that the AngIV analogues act via the HGF/c-met system an shRNA for c-Met was employed to knock-down the receptor. Dissociated hippocampal neurons were transfected with mRFP-β-actin and shMet RNA and receptor knock-down was allowed to take place for 48 hours prior to stimulating with 0.5 μg (per well) HGF (10 ng/ml), Dihexa or Nle1-AngIV (both at 10^−12 M). Longer exposure appeared to be detrimental or toxic to the neurons. Effective c-Met receptor knock-down was verified by transfecting human embryonic kidney (HEK) cells with (0.1 μg) 6-Myc-tagged c-Met, (0.1 μg)shMet or mRFP-β-actin alone. Successful knockdown was confirmed by immunoblotting for Myc tagged c-met using an anti-Myc antibody (FIG. 19).

hippocampal neurons [2] = assay: Dendritic spine head width in hippocampal neurons; conditions: 10^−12 M; control 0.67 μm
Excerpt: as §1, with “On DIV12 the neurons were fixed (4% paraformaldehyde, 3% sucrose, 60 mM PIPES, 25 mM HEPES, 5 mM EGTA, 1 mM MgCl2, pH 7.4) for 20 min at room temperature and mounted.” left out, “Each experiment was repeated at least three times using independent culture preparations.” left out, “counted. […]” for “counted.”

[3] = neurons transfected with mRFP-β-actin alone, 48 hours, control 13.2
[4] = neurons transfected with mRFP-β-actin and shMet, control 13.5

Compound | mean spine numbers per 50 μm dendrite length (hippocampal neurons [1]; HGF 5 ng/ml) | mean spine numbers per 50 μm dendrite length (hippocampal neurons [1]; HGF 10 ng/ml) | mean spine numbers per 50 μm dendrite length (hippocampal neurons [1]; HGF 20 ng/ml) | mean spine numbers per 50 μm dendrite length (c-Met receptor; [3]) | mean spine numbers per 50 μm dendrite length (c-Met receptor; [4]) | spine numbers per 50 μm dendrite length (hippocampal neurons [1]) | average spine head width (hippocampal neurons [2])
HGF: recombinant hepatocyte growth factor (R&D Systems), ligand of c-Met | 24.7 | 27.5 and 33 and 29.3 | 27.0 | 20.6 | 12.4 |  | 
CCCC[C@H](N)C(=O)N[C@@H](Cc1ccc(O)cc1)C(=O)N[C@H](C(=O)N[C@@H](Cc1c[nH]cn1)C(=O)N1CCC[C@H]1C(=O)N[C@@H](Cc1ccccc1)C(=O)O)[C@@H](C)CC [Nle1-AngIV, reference compound] (H-[Nle]YIHPF-OH; N-terminus and C-terminus assumed) |  |  |  | 20.0 | 12.1 | 29.8 | 0.87 μm
CCCCCC(=O)N[C@@H](Cc1ccc(O)cc1)C(=O)N[C@H](C(=O)NCCCCCC(N)=O)[C@@H](C)CC [Dihexa, N-hexanoic-Tyr-Ile-(6)-aminohexanoic amide] (Hexanoyl-Tyr-Ile-[Ahx]-NH2) |  |  |  | 21.8 | 12.0 | 26.4 | 0.80 μm
